{"source": "patent US11103891B2", "about": "“Pharmaceutical composition” (priority 2011, dated 2021)", "origin": "cited, not measured here", "settings": "immediate release preparations of levodopa"}
{"compound": "N[C@@H](Cc1ccc(O)c(O)c1)C(=O)O", "note": "[levodopa]", "values": [{"measurement": "levodopa dose that reaches the brain", "value": "about 5%"}]}
